Reference: US11607422B2, “Uttroside B and derivatives thereof as therapeutics for hepatocellular carcinoma” (Rajiv Gandhi Centre for Biotechnology, an Autonomous …, priority 2016, dated 2023)
Read-outs that look alike come from different tables or passages of the source.

Experiments:
[1] = tested on: PARP and caspase 9 in HepG2 cells; assay: Western blot of PARP and caspase 9 cleavage with inhibition of autophagy; format: cell-based, human; details: for effect of autophagy inhibitor on Uttroside B-induced caspase 9 activation: HepG2, Western blot; for effect of autophagy inhibitor on Uttroside B-induced cleavage of PARP: HepG2, pretreatment with inhibitor
Description: Western blot analysis. Approximately 0.5×10^6 cells were grown on 60 mm culture plates and exposed to drugs as indicated for the desired time. The cells were then scraped out, washed in ice cold 1× PBS and pelleted down at 13000 rpm for 2 min. The pelleted cells were suspended in 150 μL of ice-cold whole cell lysis buffer[(20 mMTris of pH 7.4, 250 mM NaCl, 2 mM EDTA, 0.1% Triton, 1 mM DTT (1,4-dithiothreitol), 0.5 mM PMSF, 4 mM sodium orthovanadate, aprotinin (5 mg m/L) and leupeptin (5 mg m/L)] and kept in ice for 30 min, with intermittent vortexing every 5 min. After incubation, the lysate was centrifuged at 13000 rpm for 10 min at 4° C. and the supernatant was collected. The total protein content in the lysate was estimated by Bradford's method, and was then denatured by boiling with 5× loading dye before separating the proteins by SDSpolyacrylamidegel electrophoresis (SDS-PAGE). Following electrophoresis, the polyacrylamide gel and a PVDF membrane were equilibrated with Towbins buffer (1 L, 25 mM Tris, 192 mM glycine, 20% (v/v) methanol (pH 8.3) for 15-30 min and the separated proteins were electro-transferred to PVDF membrane (Hybond-P, GE Healthcare Life science) using Bio-Rad Mini PROTEAN III wet blot apparatus at 100 V for 2 h at cold conditions. After the transfer, the membrane was rinsed with TBS-T (20 mM Tris pH 7.5, 150 mM NaCl, 0.1% Tween 20) buffer and stained with Ponceau-S to ensure uniform transfer. After washing off the Ponceau stain with TBST, the membrane was exposed to 5% fat free milk in TBST buffer for 1 h at room temperature to block the nonspecific binding of antibodies, followed by overnight incubation with the primary antibody [1:1000 dilution] in 3% BSA in TBST buffer at 4° C. Excess antibody was washed off with TBST buffer and incubated with corresponding secondary antibody [1:5000 dilution] coupled with horse radish peroxidase (HRP) in 5% fat free milk in TBST buffer. The bands were visualized using enhanced chemiluminescence kit (Millipore, St Charles, Mo., United States) following manufacturer's protocol.
HepG2 was transiently transfected with Beclin siRNA and control siRNA using Lipofectamine LTX Plus reagent kit according to manufacturer's protocol (Invitrogen, USA). 0.35×10^6cells per well were seeded in a six well tissue culture plate containing 2 ml antibiotic-free normal growth medium supplemented with FBS and the cells were incubated to attain 60% confluency. Beclin siRNA duplex solution (Solution A) was added directly to the dilute transfection reagent (LP LTX plus reagent) (Solution B). The solution was mixed gently by pipetting up and down and incubated for 45 minutes at room temperature. The cells were washed gently with 2 ml of transfection medium (optiMEM medium). […]

HepG2 cells [2] = assay: MTT assay of Uttroside B with autophagy inhibitor; format: cell-based, human; details: 3 MA 1 mM, 72 h
LC3 in HepG2 cells = assay: Autophagy flux (LC3I to LC3II conversion) with Bafilomycin; format: cell-based, human; details: HepG2, LC3 II accumulation
Description: Concentration dependent effect of BafilomycinAl on the endogenous conversion of LC3I to LC3II in HepG2 cells. Cells were treated with Bafilomycin Al at different concentration and the whole cell lysate was resolved on a 15% gel and immunoblotted against LC3 antibody. Uttroside B is an autophagy inducer in HepG2 cells as analysed by autophagy flux using Bafilomycin Al. […] The increase in LC3 II could not be considered as a fool proof of autophagic induction because a blockage in any step leading from autophagosome maturation to its fusion with lysosomes could cause its accumulation. So, the effect of Uttroside B in HepG2 cells were analyzed for autophagy flux, a more accurate read out of autophagy on co-treatment with Bafilomycin, an autophagy-lysosome inhibitor. Bafilomycin A, blocks autophagy by blocking the fusion of autophagosome with lysosome which cause the accumulation of autophagosome or LC3. First, the concentration of Bafilomycin Al required for saturating the blockage of autophagy-lysosome fusion was standardized. The efficacy of Bafilomycin Al, in terms of blocking autophagosome degradation in HepG2, was found peaked at 10 nM, beyond which no further accumulation of LC3 II was noted, which matched with the earlier reports.^32,37,38 […]

[3] = literature ref 9; cell line not stated; cited from earlier work
U937 leukemia cell line = details: literature ref 14; read-out: IC50, cytotoxicity against U937 leukemia cell line; cited from earlier work
HepG2 cells [4] = details: literature ref 14; read-out: IC50 against HepG2 cells; cited from earlier work
human cancer cells = details: literature ref 22; cited from earlier work
HepG2 cells [5] = assay: Cell cycle analysis by flow cytometry (propidium iodide); format: cell-based, human; details: HepG2, 25 μM, 24 h
Description: FIGS. 3A-3F show Uttroside B induces caspase-dependent apoptosis leading to PARP cleavage in HepG2 cells while being independent of cell cycle. FIGS. 3A-3E are images of Western blots showing caspase activation in HepG2 cells. Whole-cell extracts were prepared after treating HepG2 cells with indicated concentrations of Uttroside B for 48 h, the whole cell lysate was resolved on a 15% gel and subjected to western blotting using antibodies against the caspases 8, 9 & 7 detected by ECL. HepG2 cells were treated with Uttroside B for 48 h at different concentrations and the whole cell lysate was resolved on a 10% gel, immunoblotted against anti-PARP and detected by ECL. […] HepG2 cells were treated with Uttroside B for 48 h, stained with propidium iodide and the cell cycle analysis was done using fluorescence activated cell sorter. Curcumin 25 μM (24 h) is used as positive control.
Flow cytometry: Cell cycle analysis helps in distinguishing the distribution of a population of cells to the different stages of the cycle. Cell cycle analysis using flow cytometry was performed to investigate the cell cycle arrest induced by Uttroside B. Cell cycle analysis is performed by quantitative measurement of nuclear DNA content in a cell by staining DNA with propidium iodide. […]

[6] = literature refs 3, 25; cited from earlier work
hepatocellular carcinoma = details: cited from earlier work
HepG2 cells [7] = assay: MTT cell viability assay in HepG2 cells; format: cell-based, human; details: Homo sapiens, HepG2, 72 h, read-out: IC50, cytotoxicity towards HepG2 cells
Description: Stocks of crude extracts and isolated compound of S. nigrum was prepared in DMSO for the in vitro studies and stored at −20° C. The DMSO concentration in all studies, including controls, was ≤0.2%. Cell viability assay was performed after 72 h of drug treatment while whole cell lysate preparation and cell cycle analysis were done after 24 h and 48 h of drug treatment. For studying NF-κB and AP-1, Uttroside B was incubated for 2 h before extraction.
MTT [3-(4,5-dimethylthiazole-2-yl)-2,5-diphenyltetrazolium bromide] assay is a standard colorimetric assay, suitable for analyzing proliferation, viability, and cytotoxicity. Briefly, the HepG2 cells were seeded in 96-well plates (2000 cells/well). […] Fresh media containing 25 μL of MTT solution (5 mg/mL in PBS) and 75 μL of complete medium was added to the wells and incubated for 2 h. At the end of incubation, lysis buffer (20% sodium dodecyl sulphate in 50% dimethyl formamide)was added to the wells (0.1 mL/well) and incubated for another 1 h at 37° C. At the end of incubation, the optical density was measured at 570 nm using ELISA plate reader (Bio-Rad). The relative cell viability in percentage was calculated as (A570 of treated samples/A570 of untreated samples)×100. The IC50 values were extrapolated from polynomial regression analysis of study data.^17

With `Cn1cnc(N)c2ncnc1-2` [3-MA] the “effect of autophagy inhibitor on Uttroside B-induced caspase 9 activation” value [1] was “enhanced”, the “effect of autophagy inhibitor on Uttroside B-induced cleavage of PARP” value [1] was “enhanced” and the “effect of autophagy inhibitor on Uttroside B-induced cytotoxicity” value (HepG2 cells [2]) was “significantly enhanced”.
In the case of `CO/C1=C\C(C)=C\[C@@H](C)[C@@H](O)[C@@H](C)C/C(C)=C/C=C/[C@H](OC)[C@@H]([C@@H](C)[C@@H](O)[C@H](C)[C@@]2(O)C[C@@H](O)[C@H](C)[C@@H](C(C)C)O2)OC1=O` [Bafilomycin Al], the “concentration at which blocking of autophagosome degradation peaked” value (LC3 in HepG2 cells) is reported as 10 nM, the “effect of autophagy inhibitor on Uttroside B-induced caspase 9 activation” value [1] is reported as “enhanced” and the “effect of autophagy inhibitor on Uttroside B-induced cleavage of PARP” value [1] is reported as “enhanced”.
In the case of `C[C@@H]1CC[C@@]2(OC1)O[C@H]1C[C@H]3[C@@H]4CC[C@H]5C[C@@H](O[C@@H]6O[C@H](CO)[C@H](O[C@@H]7O[C@H](CO)[C@@H](O)[C@H](O[C@@H]8OC[C@@H](O)[C@H](O)[C@H]8O)[C@H]7O[C@@H]7O[C@H](CO)[C@@H](O)[C@H](O)[C@H]7O)[C@H](O)[C@H]6O)CC[C@]5(C)[C@H]4CC[C@]3(C)[C@H]1[C@@H]2C` [Degalactotigonin], the cytotoxicity [3] is listed as 0.25 µM.
In the case of `C[C@H](CC[C@@]1(O)O[C@H]2C[C@H]3[C@@H]4CC[C@H]5C[C@@H](O[C@@H]6O[C@H](CO)[C@H](O[C@@H]7O[C@H](CO)[C@@H](O)[C@H](O[C@@H]8OC[C@@H](O)[C@H](O)[C@H]8O)[C@H]7O[C@@H]7O[C@H](CO)[C@H](O)[C@H](O)[C@H]7O)[C@H](O)[C@H]6O)CC[C@]5(C)[C@H]4CC[C@]3(C)[C@H]2[C@@H]1C)CO[C@@H]1O[C@H](CO)[C@@H](O)[C@H](O)[C@H]1O` [Parvispinoside B], the IC50 (U937 leukemia cell line) is given as 0.5 µM and the IC50 (HepG2 cells [4]) is given as over 100 µM.
For `C[C@H]1CC[C@@]2(OC1)O[C@H]1C[C@H]3[C@@H]4CC[C@@H]5C[C@@H](O)C[C@@H](O[C@@H]6OC[C@@H](O)[C@H](O)[C@H]6O[C@@H]6O[C@@H](C)[C@H](O)[C@@H](O)[C@H]6O)[C@]5(C)[C@H]4CC[C@]3(C)[C@H]1[C@@H]2C` [RCE-4, (1β,3β,5β,25S)-spirostan-1,3-diol1-[α-L-rhamnopyranosyl-(1→2)-β-Dxylopyranoside]], the “growth inhibition and apoptosis” value (human cancer cells) is listed as “induce growth inhibition and apoptosis in human cancer cells”.
With `COc1cc(/C=C/C(=O)CC(=O)/C=C/c2ccc(O)c(OC)c2)ccc1O` [curcumin, reference compound] the “effect on cell cycle (positive control)” value (HepG2 cells [5]) was “readily induced cell cycle arrest at G2/M”.
For `C[C@@H]1CC[C@@]2(OC1)O[C@H]1C[C@H]3[C@@H]4CC=C5C[C@@H](O)CC[C@]5(C)[C@H]4CC[C@]3(C)[C@H]1[C@@H]2C` [diosgenin], the “effect on cell cycle” value [6] is given as “block cell cycle in G0/G1 phase”.
For `C[C@@H]1CC[C@@]2(OC1)O[C@H]1C[C@H]3[C@@H]4CC[C@@H]5C[C@@H](O)CC[C@]5(C)[C@H]4CC[C@]3(C)[C@H]1[C@@H]2C` [smilagenin], the “effect on cell cycle” value [6] is given as “block cell cycle in G0/G1 phase”.
For `CNC(=O)c1cc(Oc2ccc(NC(=O)Nc3ccc(Cl)c(C(F)(F)F)c3)cc2)ccn1` [sorafenib], the “prolongation of survival rate” value (hepatocellular carcinoma; HCC patients) is given as “up to 20%”, the side effects (hepatocellular carcinoma; reported) is given as “severe side effects” and the IC50 (HepG2 cells [7]) is given as 5.8 µM.
For `C[C@@H]1CC[C@@]2(OC1)O[C@H]1C[C@H]3[C@@H]4CC[C@H]5C[C@@H](O)CC[C@]5(C)[C@H]4CC[C@]3(C)[C@H]1[C@@H]2C` [tigogenin], the “effect on cell cycle” value [6] is given as “no effect on cell cycle”.
